In data set [1] the target is T1, ASIC1a (Homo sapiens, UniProt P78348).
T1 sequence (P78348 1-528): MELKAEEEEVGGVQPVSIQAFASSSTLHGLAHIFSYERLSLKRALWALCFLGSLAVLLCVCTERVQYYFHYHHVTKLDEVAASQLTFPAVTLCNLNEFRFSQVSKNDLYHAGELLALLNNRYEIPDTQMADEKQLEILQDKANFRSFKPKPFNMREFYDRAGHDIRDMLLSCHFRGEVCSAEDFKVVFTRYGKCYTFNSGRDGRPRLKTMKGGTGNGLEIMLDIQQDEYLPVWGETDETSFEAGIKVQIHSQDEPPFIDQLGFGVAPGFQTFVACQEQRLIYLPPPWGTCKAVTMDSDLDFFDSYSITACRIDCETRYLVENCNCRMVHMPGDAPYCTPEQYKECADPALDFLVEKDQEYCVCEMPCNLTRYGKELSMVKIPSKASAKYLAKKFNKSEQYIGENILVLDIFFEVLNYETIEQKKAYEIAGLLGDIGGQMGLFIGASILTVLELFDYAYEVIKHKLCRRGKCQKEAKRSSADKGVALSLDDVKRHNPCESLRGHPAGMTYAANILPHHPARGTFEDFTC
The data set can be described thus: Calcium-imaging (calcium mobilization, FLIPR) assay in ASIC1a expressing HEK293 cells. The settings on record: n=3-7, compounds not radiolabelled. The format is cell-based. The arrangement: host or cells: HEK293. The method, then:
ASIC1a expressing HEK293 cells are grown in culture medium (DMEM with 10% FBS), in polystyrene culture flasks ([…]) at 37° C. in a humidified atmosphere of 5% CO2. Confluency of cells should be 80-90% on day of plating. Cells are rinsed with 10 ml of PBS and re-suspended by addition of culture medium and trituration with a 25 ml pipette.
The cells are seeded at a density of approximately 1×10^6 cells/ml (100 μl/well) in black-walled, clear bottom, 96-well plates pre-treated with 10 mg/l poly-D-lysin (75 μl/well for ≧30 min). Plated cells were allowed to proliferate for 24 h before loading with dye.
Fluo-4/AM (1 mg, Molecular Probes) is dissolved in 912 μl DMSO. The Fluo-4/AM stock solution (1 mM) is diluted with culture medium to a final concentration of 2 μM (loading solution).
The culture medium is aspirated from the wells, and 50 μl of the Fluo-4/AM loading solution is added to each well. The cells are incubated at 37° C. for 30 min.
After the loading period, the loading solution is aspirated and the cells are washed twice with 100 μl modified Assay Buffer (145 mM NaCl, 5 mM KCl, 5 mM CaCl2, 1 mM MgCl2, 10 mM HEPES, pH 7.4) to remove extracellular dye. Following the second wash, 100 μl modified Assay Buffer is added to each well and the fluorescence is measured in FLIPR™ or FlexStation™ (Molecular Devices, USA), or any other suitable equipment known to the skilled in the art.
Temperature: Room temperature (20-22° C.)
First addition: 50 μl test solution at a rate of 30 μl/sec and a starting height of […]
Second addition: 50 μl MES solution (20 mM, 5 mM final concentration) at a rate of 35 μl/sec and a starting height of 150 μl.
Reading intervals: pre-incubation—10 sec×7 and 3 sec×3 antagonist phase—3 sec×17 and 10 sec×12
Addition plates (compound test plate and MES plate) are placed on the right and left positions in the FLIPR tray, respectively. Cell plates are placed in the middle position and the ASIC1a program is effectuated. FLIPR will then take the appropriate measurements in accordance with the interval settings above. Fluorescence obtained after stimulation is corrected for the mean basal fluorescence (in modified Assay Buffer).
The MES-induced peak calcium response, in the presence of test substance, is expressed relatively to the MES response alone. Test substances that block the MES-induced calcium response are re-tested in triplicates. Confirmed hits are picked for further characterization by performing full dose-response curves to determine potency of each hit compound as represented by the IC50 values (i.e., the concentration of the test substance which inhibits 50% of the MES-induced calcium response).
It is noted that the compounds below are not radiolabelled.

A short description of data set [2]: Plasma composition analysis, parent compound and metabolites by MS. The settings on record: rat plasma; for Plasma Component: P-OH: Compound G: detected but not confirmed (footnote a). The format is in vivo. The method, then:
Rats receive compounds (5 mg/kg) dissolved in HPβCD 15%, dextrose 2.5%, pH 5 by intravenous (i.v). route or (25-30 mg/kg) dissolved in HPβCD 15%, dextrose 2.5%, […] (s.c.) route or (50-150 mg/kg) dissolved in HPβCD 15%, dextrose 2.5%, pH 5 by oral (p.o.) route. After the treatment, approximately 100 μl of blood sample is collected and the accurate bleeding time is recorded for each sample. Each blood sample is collected into Microvette blood collection tube containing anticoagulant lithium heparin. Following collection, the samples are centrifuged at […] for 15 minutes (to avoid haemolysis) and the plasma obtained from each is recovered and stored frozen (at −80° C.) pending analysis. Frozen samples are shipped on dry ice to quantify drug concentration within plasma after extraction procedure as previously described in Example 13.

The target in data set [3] is T1, ASIC1a. Description: Whole cell patch clamp in heterologous expression system (CHO cells). The data set is classed as cell-based. More on the design: expressed in transfected cells; host or cells: CHO cells. As to the method: Another example of an in vitro assessment method consists of using mammalian heterologous expression systems, which are known to the skilled in the art, and include a variety of mammalian cell lines such as COS, HEK, e.g., HEK293 and/or CHO, cells. Cell lines are transfected with gated ion channel(s) and used to perform electrophysiology as follows:
All experiments are performed at room temperature (20-25° C.) in voltage clamp using conventional whole cell patch clamp methods (Neher, E., et al. (1978) Pfluegers Arch 375:219-228).
The amplifier used is the EPC-9 (HEKA-electronics, Lambrect, Germany) run by a Macintosh G3 computer via an ITC-16 interface. Experimental conditions are set with the Pulse-software accompanying the amplifier. Data is low pass filtered and sampled directly to hard-disk at a rate of 3 times the cut-off frequency.
Pipettes are pulled from borosilicate glass using a horizontal electrode puller (Zeitz-lnstrumente, Augsburg, Germany). The pipette resistances are 2-3 MOhms in the salt solutions used in these experiments. The pipette electrode is a chloridized silver wire, and the reference is a silver chloride pellet electrode (In Vivo Metric, Healdsburg, USA) fixed to the experimental chamber. The electrodes are zeroed with the open pipette in the bath just prior to sealing.
Coverslips with the cells are transferred to a 15 μl experimental chamber mounted on the stage of an inverted microscope (IMT-2, Olympus) supplied with Nomarski optics. Cells are continuously superfused with extracellular saline at a rate of 2.5 ml/min. After giga-seal formation, the whole cell configuration is attained by suction. The cells are held at a holding voltage of −60 mV and at the start of each experiment the current is continuously measured for 45 s to ensure a stable baseline. […] Current amplitudes are measured at the peak of the responses, and effect of the compounds is calculated as the amplitude at compound equilibrium divided by the amplitude of the current evoked by the pulse just before the compound was included. […]

The subject of data set [4] is CFA-induced change in weight bearing in Sprague-Dawley rats. The data set can be described thus: CFA model of chronic inflammatory pain, hindpaw weight bearing. The data set is classed as in vivo, rat. The settings on record: 24 h after CFA; 60 min after drug; Compound A 5, 10, 20 mg/kg i.p.; Compound H 10, 30, 60 mg/kg; morphine 3, 6, 10 mg/kg; n=7-8. The method, then:
Rats (body weight 260-300 g) were given a s.c. injection of CFA (50% in saline, 100 μl, Sigma) into the plantar surface of the hindpaw under brief halothane anaesthesia. After 24 h, they were then tested for hindpaw weight bearing responses, as assessed using an Incapacitance Tester (Linton Instrumentation, UK), (Zhu et al., 2005). The instrument incorporates a dual channel scale that separately measures the weight of the animal distributed to each hindpaw. While normal rats distribute their body weight equally between the two hindpaws (50-50), the discrepancy of weight distribution between an injured and non-injured paw is a natural reflection of the discomfort level in the injured paw (nocifensive behavior). The rats were placed in the plastic chamber designed so that each hindpaw rested on a separate transducer pad. […] For each rat, three readings from each paw were taken and then averaged. Side-to-side weight bearing difference was calculated as the average of the absolute value of the difference between two hindpaws from three trials (right paw reading-left paw reading).
Hindpaw weight bearing responses were measured in male Sprague-Dawley rats for 2-3 days prior to being given a hindpaw injection of CFA. Twenty-four hours later baseline responses were measured and rats were then administered Compound A (5, 10 and 20 mg/kg, i.p.), Compound H (10, 30 and 60 mg/kg) and morphine (3, 6 and 10 mg/kg). Weight bearing responses were then measured at 30, 60 and 120 min after drug or vehicle injection (data shown at 60 min.). […] All groups n=7-8.

Where [5] appears, read: IV 5 mg/kg (table of Compounds G and J).
[6] abbreviates: PO 50 mg/kg (table of Compounds G and J).

On to `CCN1CCc2c(-c3cc(Cl)ccc3OC)cc3c(c2C1)NC(=O)/C3=N/O` [Compound G, 5-(5-chloro-2-methoxyphenyl)-6,7,8,9-tetrahydro-3-(hydroxyimino)-8-ethyl-1H-pyrrolo[3,2-h]isoquinoline-2(3H)-one], for which the IC50 in data set [1] was found to be 0.3 µM. Besides, the “Plasma Component: N-desEt” value in data set [2] (IV 5 mg/kg) and in data set [2] (PO 50 mg/kg) was “Small” throughout. In addition, the “Plasma Component: O-desMe” value in data set [2] (setting [5]) and in data set [2] (setting [6]) was “Small” in each case. Also, the “Plasma Component: P-OH” value in data set [2] (IV 5 mg/kg) and in data set [2] (PO 50 mg/kg) was “Small ^a” throughout.
Consider `N=C(N)NC(=O)c1nc(Cl)c(N)nc1N` [amiloride, reference compound], for which, in data set [3], the “human ASIC1a pH-evoked response” value is on record as “reduce the human ASIC1a pH-evoked response in CHO cells in a dose-dependent manner”.
Take `CCN1CCc2c(-c3ccccc3OC)cc3c(c2C1)NC(=O)/C3=N/O` [Compound J, 5-(2-methoxy-phenyl)-6,7,8,9-tetrahydro-3-(hydroxyimino)-8-ethyl-1H-pyrrolo[3,2-h]isoquinoline-2(3H)-one]: in data set [1], the IC50 amounted to 0.7 µM. The “Plasma Component: N-desEt” value in data set [2] (IV 5 mg/kg) and in data set [2] (PO 50 mg/kg) was “Small” each time. Further, the “Plasma Component: O-desMe” value in data set [2] (setting [5]) and in data set [2] (setting [6]) was “Small” throughout. Further, the “Plasma Component: P-OH” value in data set [2] (IV 5 mg/kg) and in data set [2] (PO 50 mg/kg) was “Small” throughout.
As to `CN1CC[C@]23c4c5ccc(O)c4O[C@H]2[C@@H](O)C=C[C@H]3[C@H]1C5` [morphine, reference compound], the “CFA-induced change in weight bearing compared with vehicle” value in data set [4] is “marked dose-dependent attenuation”.

The values above are taken from patent publication US20090246134A1, “COMPOSITIONS AND METHODS FOR MODULATING GATED ION CHANNELS” (PainCeptor Pharma Corporation, priority 2007, published 2009).
